Data on 42 compounds can be found in patent US20210038559A1, “CANNABINOIDS AND DERIVATIVES FOR PROMOTING IMMUNOGENICITY OF TUMOR AND INFECTED CELLS” (priority 2018, published 2021).

The subject of the first experiment is MHC-I expression by COLO 205 cells. As to the kind of experiment: cells. The experiment is classed as cell-based, human.
Conditions: not given
As for the experimental part: A panel of synthetic cannabinoids (Cayman Chemical, #9002891) was tested for MHC class I-inducing capability in COLO 205 cells as described above. COLO 205 cells were treated with the compounds at a concentration of 35 μM and evaluated for cell surface MHC class I expression after 48 hours. Cells were harvested, stained with MHC-I mAb W6/32 (Thermo Fisher). MHC-I expression was determined by flow cytometry.
Regarding `C#CCCCCCCCCCNC(=O)Oc1cccc(-c2cccc(C(N)=O)c2)c1` [Example 182, 3′-carbamoyl-biphenyl-3-yl-undecynecarbamate], the “Induction Fold” value is on record as 1.93 Fold.
On the same count and under the same terms, with `CCCCCCn1cccc1C(=O)c1cccc2ccccc12` [Example 202, (1-hexyl-1H-pyrrol-2-yl)-1-naphthalenyl-methanone] the figure was 1.87 Fold; with `CCC(F)CCn1nc(C(=O)N[C@H](C(=O)OC)C(C)C)c2ccccc21` (stereo partly drawn) [Example 210, methyl (1-(3-fluoropentyl)-1H-indazole-3-carbonyl)-1-valinate], 1.84 Fold.

Staying with this experiment, now noted: Homo sapiens, COLO 205, 48 h, MHC-I expression, COLO 205 cells, compounds at 35 μM, 48 hours, flow cytometry (W6/32); read-out: Induction Fold.
As to `CCCCCn1cc(C(=O)c2cccc3ccc(C)cc23)c2ccccc21` [Example 161, (7-methyl-1-naphthalenyl)(1-pentyl-1H-indol-3-yl)-methanone], the fold induction at 35 µM stood at 2.06.
`O=C(Oc1cccc2cnccc12)c1cn(CC2CCCCC2)c2ccccc12` [Example 162, isoquinolin-5-yl 1-(cyclohexylmethyl)-1H-indole-3-carboxylate]: the fold induction at 35 µM turned out to be 2.04.
The same measure, in the same setting: with `CCCCCn1cc(C(=O)c2cccc3ccc(OC)cc23)c2ccccc21` [Example 163, (7-methoxy-1-naphthalenyl)(1-pentyl-1H-indol-3-yl)-methanone] the figure was 2.04; with `CCCCCn1cc(C(=O)c2ccc(CCC)c3ccccc23)c2ccccc21` [Example 164, (1-pentyl-1H-indol-3-yl)(4-propyl-1-naphthalenyl)-methanone], 2.03; with `CCCCCn1cc(C(=O)Cc2cccc(C)c2)c2ccccc21` [Example 165, 1-(1-pentyl-1H-indol-3-yl)-2-(m-tolyl)ethanone], 2.02.
On the same count and under the same terms, with `O=C(Nc1cccc2cccnc12)c1nn(CCCCCF)c2ccccc12` [Example 166, 1-(5-fluoropentyl)-N-(quinolin-8-yl)-1H-indazole-3-carboxamide] the figure was 2.01; with `O=C(Oc1cccc2ccccc12)c1nn(CCCCCF)c2ccccc12` [Example 167, naphthalen-1-yl 1-(5-fluoropentyl)-1H-indazole-3-carboxylate], 2.01; with `CC(C)(C)Cn1cc(C(=O)c2ccc3ccccc3c2)c2ccccc21` [Example 168, [1-(2,2-dimethylpropyl)-1H-indol-3-yl]-2-naphthalenyl-methanone], 2.01.
On the same count and under the same terms, the same measure for `CC(C)[C@H](NC(=O)c1nn(CCCCCCl)c2ccccc12)C(N)=O` [Example 170, N-[(1S)-1-(aminocarbonyl)-2-methylpropyl]-1-(5-chloropentyl)-1H-indazole-3-carboxamide]: 2.01; for `CCCCCn1nc(C(=O)Oc2cccc3ccccc23)c2ccccc21` [Example 171, naphthalen-1-yl 1-pentyl-1H-indazole-3-carboxylate]: 1.99.
Regarding `CC(C)[C@H](NC(=O)c1nn(Cc2ccc(F)cc2)c2ccccc12)C(N)=O` [Example 172, N-[(1S)-1-(aminocarbonyl)-2-methylpropyl]-1-[(4-fluorophenyl)methyl]-1H-indazole-3-carboxamide], the fold induction at 35 µM came to 1.99.
On the same count and under the same terms, the same measure for `CCC(F)CCCn1cc(C(=O)c2cccc3ccccc23)c2ccccc21` (stereo not drawn) [Example 173, (1-(4-fluorohexyl)-1H-indol-3-yl)(naphthalen-1-yl)methanone]: 1.98.
Still for that read-out and setting: with `CCC(F)CCn1cc(C(=O)c2ccc(C)c3ccccc23)c2ccccc21` (stereo not drawn) [Example 174, (1-(3-fluoropentyl)-1H-indol-3-yl)(4-methylnaphthalen-1-yl)methanone] the figure was 1.96; with `CCCCCn1cc(C(=O)c2cccc3ccccc23)c2ccc(OC)cc21` [Example 175, (6-methoxy-1-pentyl-1H-indol-3-yl)(naphthalen-1-yl)-methanone], 1.95.
On the same count and under the same terms, the same measure for `CCCC(F)CCn1cc(C(=O)c2cccc3ccccc23)c2ccccc21` (stereo not drawn) [Example 176, (1-(3-fluorohexyl)-1H-indol-3-yl)(naphthalen-1-yl)methanone]: 1.95.
Regarding `O=C(c1cccc2ccccc12)c1cn(CCCCCCl)c2ccccc12` [Example 177, (1-(5-chloropentyl)-1H-indol-3-yl)(naphthalen-1-yl)methanone], the fold induction at 35 µM was 1.94.
The same measure, in the same setting: with `CCCCCn1cccc1C(=O)c1cccc2ccccc12` [Example 178, naphthalen-1-yl(1-pentyl-1H-pyrrol-2-yl)methanone] the figure was 1.94; with `CCCCCn1cc(C(=O)c2ccc(CC)c3ccccc23)c2ccccc21` [Example 180, (4-ethyl-1-naphthalenyl)(1-pentyl-1H-indol-3-yl)-methanone], 1.93.
For the compound `CCCCCn1cc(C(=O)Cc2ccc(C)cc2)c2ccccc21` [Example 181, 2-(4-methylphenyl)-1-(1-pentyl-1H-indol-3-yl)-ethanone], the fold induction at 35 µM worked out at 1.93.
Still for that read-out and setting: the same measure for `O=C(Nc1cccc2ccccc12)c1nn(CCCCCF)c2ccccc12` [Example 184, 1-(5-fluoropentyl)-N-1-naphthalenyl-1H-indazole-3-carboxamide]: 1.9; for `CC1(C)C(C(=O)c2nn(CCCCCF)c3ccccc23)C1(C)C` [Example 185, (1-(5-fluoropentyl)-1H-indazol-3-yl)(2,2,3,3-tetramethylcyclopropyl)methanone]: 1.9; for `CC(C)(C)C(NC(=O)c1cn(Cc2ccccc2)c2ccccc12)C(N)=O` (stereo not drawn) [Example 186, N-(1-amino-3,3-dimethyl-1-oxobutan-2-yl)-1-benzyl-1H-indole-3-carboxamide]: 1.9.
On the same count and under the same terms, with `CCCC(C)n1cc(C(=O)c2cccc3ccccc23)c2ccccc21` (stereo not drawn) [Example 187, naphthalen-1-yl(1-(pentan-2-yl)-1H-indol-3-yl)methanone] the figure was 1.9; with `Cc1ccc(C(=O)c2cn(CCCCCCl)c3ccccc23)c2ccccc12` [Example 189, (1-(5-chloropentyl)-1H-indol-3-yl)(4-methylnaphthalen-1-yl)methanone], 1.89; with `CCCCCn1cc(C(=O)Cc2ccccc2Cl)c2ccccc21` [Example 190, 2-(2-chlorophenyl)-1-(1-pentyl-1H-indol-3-yl)-ethanone], 1.89.
On the same count and under the same terms, with `CCCCCn1cc(C(=O)c2cccc3c(C)cccc23)c2ccccc21` [Example 191, (5-methylnaphthalen-1-yl)(1-pentyl-1H-indol-3-yl)methanone] the figure was 1.89; with `CCCCCc1cc(OC)c2cc(Cc3ccccc3OC)c(=O)oc2c1` [Example 200, 5-methoxy-3-[(2-methoxyphenyl)methyl]-7-pentyl-2H-1-benzopyran-2-one], 1.88.
Take `CCC(CC)n1cc(C(=O)c2ccc3ccccc3c2)c2ccccc21` [Example 201, [1-(1-ethylpropyl)-1H-indol-3-yl]-2-naphthalenyl-methanone]: the fold induction at 35 µM stood at 1.87.
Same read-out and setting: the same measure for `Cc1ccc(C(=O)c2cn(CCN3CCOCC3)c3ccccc23)c2ccccc12` [Example 203, (4-methyl-1-naphthalenyl)[1-[2-(4-morpholinyl)ethyl]-1H-indol-3-yl]-methanone]: 1.87.
The same measure, in the same setting: the same measure for `O=C(Oc1cccc2cccnc12)c1cn(Cc2ccc(F)cc2)c2ccccc12` [Example 204, 1-[(4-fluorophenyl)methyl]-1H-indole-3-carboxylic acid, 8-quinolinyl ester]: 1.87.
On the same count and under the same terms, with `CCCCCn1cc(C(=O)c2ccc(Br)c3ccccc23)c2ccccc21` [Example 205, (4-bromo-1-naphthalenyl)(1-pentyl-1H-indol-3-yl)-methanone] the figure was 1.86.
With `O=C(Oc1cccc2ncccc12)c1cn(CC2CCCCC2)c2ccccc12` [Example 206, quinolin-5-yl 1-(cyclohexylmethyl)-1H-indole-3-carboxylate], the fold induction at 35 µM was 1.86.
On the same count and under the same terms, the same measure for `CCCCC(F)Cn1cc(C(=O)c2cccc3ccccc23)c2ccccc21` (stereo not drawn) [Example 207, (1-(2-fluorohexyl)-1H-indol-3-yl)(naphthalen-1-yl)methanone]: 1.85.
On the same count and under the same terms, the same measure for `O=C(Nc1cccc2cccnc12)c1cn(CCCCCF)c2ccccc12` [Example 208, 1-(5-fluoropentyl)-N-(quinolin-8-yl)-1H-indole-3-carboxamide]: 1.84; for `CCCCCn1cc(C(=O)c2ccc(C)c3ccccc23)c2ccccc21` [Example 211, (4-methyl-1-naphthalenyl)(1-pentyl-1H-indol-3-yl)-methanone]: 1.83; for `NC(=O)[C@H](Cc1ccccc1)NC(=O)c1nn(Cc2ccc(F)cc2)c2ccccc12` [Example 213, N-[(1S)-2-amino-2-oxo-1-(phenylmethyl)ethyl]-1-[(4-fluorophenyl)methyl]-1H-indazole-3-carboxamide]: 1.81.

The same experiment, now with this note: MHC-I expression, COLO 205 cells, compounds at 35 μM, 48 hours, flow cytometry (W6/32).
For the compound `COC(=O)[C@H](NC(=O)c1nn(CCCCCF)c2ccccc12)C(C)(C)C` [Example 179, N-[[1-(5-fluoropentyl)-1H-indazol-3-yl]carbonyl]-3-methyl-D-valine, methyl ester], the “Induction Fold” value was 1.94 Fold.
The same measure, in the same setting: the same measure for `CCCCCn1nc(C(=O)N[C@H](C(=O)OC)C(C)C)c2ccccc21` [Example 183, N-[(1-pentyl-1H-indazol-3-yl)carbonyl]-1-valine, methyl ester]: 1.91 Fold; for `CCCC(C)(C)c1ccc2c(c1)OC(C)(C)[C@@H]1CC=C(C)C[C@@H]21` [Example 188, 3-(1,1-dimethylbutyl)-6aR,7,10,10aR-tetrahydro-6,6,9-trimethyl-6H-dibenzo[b,d]pyran]: 1.90 Fold.
